Among the data in ChEMBL document CHEMBL1133645, “(S)-4-Methyl-2-(methylamino)pentanoic acid [4, 4-bis(4-fluorophenyl)butyl]amide hydrochloride, a novel calcium channel antagonist, is efficacious in several animal models of pain” (J Med Chem, 2000) are ED50 and IC50 values, retold here.

Test [1] deals with Rattus norvegicus. The test is described as follows: Dose given at 15 and 30 mg/kg over 10 min resulting in 50% reduction in the number of flinches per minute when administarted intravenously. The note with it: iv.
A short description of test [2]: Electrophysiology tested by the voltage clamp assay using superior cervical ganglion sodium neuron (SCGNa). In kind it is functional, tissue-based. The note with it: Rattus norvegicus.
Test [3] in a line: Electrophysiology tested by the voltage clamp assay using superior cervical ganglion calcium neuron (SCGCa). In kind it is functional, tissue-based. The note with it: Rattus norvegicus.
Test [4] concerns Rattus norvegicus. Put plainly: Oral administration of dose resulting in 50% reduction in the number of flinches per minute.
Test [5] can be described thus: Electrophysiology tested by the voltage clamp assay using superior cervical ganglion potassium neuron (SCGK). In kind it is functional, tissue-based. The note with it: Rattus norvegicus.
The species entered for test [6] is Rattus norvegicus. The test is described as follows: Intrathecal bolus injection of 12.5-100 microg of dose resulting in 50% reduction in the amount of foot withdraw responding to repeated mechanical stimuli.
A short description of test [7]: Intravenous administration of dose resulting in 50% reduction in the number of writhes in male CF-1 mice. In kind it is functional. Conditions: Mus musculus.
Test [8] has as its target Voltage-gated L-type calcium channel (Rattus norvegicus, UniProt P22002+Q02485+P27732). The test is described as follows: L-type calcium channel blockade in A10 smooth muscle cells by Oregon Green 488 Bapta-1 dye. In kind it is functional, cell-based.
The subject of another test is Mus musculus. The test is described as follows: Intravenous administration of dose required to prevent clonic seizures and tonic extension seizure of forelimbs and hindlimbs. In kind it is functional. The note with it: Hindlimb.

In general, IC50 refers to the concentration that gives 50% inhibition. For `CN[C@@H](CC(C)C)C(=O)NCCCC(c1ccc(F)cc1)c1ccc(F)cc1.Cl`, the ED50 in the test with Rattus norvegicus [1] stood at 16 mg/kg; in the test on Rattus norvegicus [4], 87 mg/kg; in the test listed under Rattus norvegicus [6], 23 µg; in test [7] it was 4.46 mg/kg; in the test on Mus musculus, 4.05 mg/kg. Besides, the IC50 worked out at 5.1 µM in test [2], 1.3 µM in test [3], 9.9 µM in test [5] and 0.4 µM in [8].
